{
  "source": "ChEMBL document CHEMBL1201862",
  "about": "“PubChem BioAssay data set” (2004)",
  "key": {"[1]": {"target": "Serine/threonine-protein phosphatase (Homo sapiens, UniProt Q9BPW0)", "sequence (Q9BPW0 whole entry)": "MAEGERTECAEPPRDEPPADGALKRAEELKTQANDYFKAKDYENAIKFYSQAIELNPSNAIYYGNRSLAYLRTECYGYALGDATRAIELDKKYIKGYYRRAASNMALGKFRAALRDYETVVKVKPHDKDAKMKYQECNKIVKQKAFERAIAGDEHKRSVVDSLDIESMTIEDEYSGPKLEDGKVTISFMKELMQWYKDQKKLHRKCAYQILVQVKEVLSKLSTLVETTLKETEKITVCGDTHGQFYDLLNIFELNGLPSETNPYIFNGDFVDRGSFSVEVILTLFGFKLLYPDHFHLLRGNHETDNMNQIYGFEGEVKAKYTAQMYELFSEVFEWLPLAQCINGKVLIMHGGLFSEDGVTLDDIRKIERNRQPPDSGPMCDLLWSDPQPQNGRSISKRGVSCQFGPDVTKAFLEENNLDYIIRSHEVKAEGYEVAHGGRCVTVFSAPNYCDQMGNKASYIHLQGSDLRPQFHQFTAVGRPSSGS", "experiment": "PP5 phosphatase inhibitors, dose response, biochemical, fluorescence (AID 2395)"}, "[2]": {"target": "T1, Sentrin-specific protease 8 (Homo sapiens, UniProt Q96LD8)", "T1 sequence (Q96LD8 whole entry)": "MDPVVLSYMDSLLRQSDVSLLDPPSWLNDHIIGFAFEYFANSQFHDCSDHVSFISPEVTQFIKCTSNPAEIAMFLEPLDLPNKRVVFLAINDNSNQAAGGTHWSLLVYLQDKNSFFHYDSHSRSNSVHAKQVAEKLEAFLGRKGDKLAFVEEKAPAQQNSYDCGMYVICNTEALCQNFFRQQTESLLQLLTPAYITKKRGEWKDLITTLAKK", "assay_type": "functional"}, "[3]": {"target": "Serine/threonine-protein phosphatase PP1-alpha catalytic subunit (Homo sapiens, UniProt P62136)", "sequence (P62136 whole entry)": "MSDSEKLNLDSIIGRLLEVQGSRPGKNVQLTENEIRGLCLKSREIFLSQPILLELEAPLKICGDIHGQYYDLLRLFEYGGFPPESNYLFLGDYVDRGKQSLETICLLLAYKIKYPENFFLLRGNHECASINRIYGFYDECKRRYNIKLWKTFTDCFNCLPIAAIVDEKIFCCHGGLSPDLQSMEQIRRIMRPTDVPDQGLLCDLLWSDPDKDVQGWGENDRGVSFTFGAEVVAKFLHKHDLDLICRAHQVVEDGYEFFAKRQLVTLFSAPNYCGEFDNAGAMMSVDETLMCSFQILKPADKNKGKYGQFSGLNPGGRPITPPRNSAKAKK", "experiment": "PP1 phosphatase inhibitors, dose response, biochemical, fluorescence (AID 2394)"}, "[4]": {"target": "T1, Sentrin-specific protease 8", "assay_type": "functional", "remark": "listed apart in the source"}, "Streptococcus": {"tested_on": "Streptococcus", "experiment": "Group A Streptococcus viability loss, dose response, counter-screen for streptokinase expression inhibitor project, luminescence, BacTiterGlo (AID 1915);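 further: potency for reduction of bacterial viability or growth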", "assay_type": "functional, organism-based"}, "Hexokinase HKDC1": {"target": "T2, Hexokinase HKDC1 (Homo sapiens, UniProt Q2TB90)", "T2 sequence (Q2TB90 whole entry)": "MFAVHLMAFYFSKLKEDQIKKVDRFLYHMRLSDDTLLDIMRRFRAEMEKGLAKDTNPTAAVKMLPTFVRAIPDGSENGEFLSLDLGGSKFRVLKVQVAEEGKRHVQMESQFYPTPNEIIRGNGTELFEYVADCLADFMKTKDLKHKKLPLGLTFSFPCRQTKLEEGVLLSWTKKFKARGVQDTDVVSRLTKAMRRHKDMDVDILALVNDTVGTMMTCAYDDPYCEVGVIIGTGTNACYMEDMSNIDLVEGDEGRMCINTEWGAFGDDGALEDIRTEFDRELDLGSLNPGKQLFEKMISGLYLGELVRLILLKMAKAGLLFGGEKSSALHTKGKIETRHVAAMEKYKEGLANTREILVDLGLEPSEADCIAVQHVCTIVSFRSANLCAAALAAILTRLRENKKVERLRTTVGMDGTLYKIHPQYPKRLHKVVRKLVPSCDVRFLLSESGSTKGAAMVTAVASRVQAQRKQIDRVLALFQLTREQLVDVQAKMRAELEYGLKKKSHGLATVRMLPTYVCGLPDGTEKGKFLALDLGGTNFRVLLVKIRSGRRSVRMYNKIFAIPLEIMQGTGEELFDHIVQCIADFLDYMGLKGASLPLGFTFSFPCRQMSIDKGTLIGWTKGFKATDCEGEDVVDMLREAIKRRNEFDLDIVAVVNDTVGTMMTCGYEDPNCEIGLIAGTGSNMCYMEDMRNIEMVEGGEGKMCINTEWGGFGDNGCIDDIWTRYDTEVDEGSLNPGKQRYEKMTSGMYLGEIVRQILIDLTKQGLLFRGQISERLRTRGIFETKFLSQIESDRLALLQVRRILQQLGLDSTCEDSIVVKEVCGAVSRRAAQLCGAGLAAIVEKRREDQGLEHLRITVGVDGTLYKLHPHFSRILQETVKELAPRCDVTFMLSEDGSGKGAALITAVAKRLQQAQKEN", "experiment": "HKDC1 hexokinase inhibitors, dose response, biochemical, W721R variant (AID 504729)", "assay_type": "functional"}, "SUMO-activating enzyme [5]": {"target": "T3, SUMO-activating enzyme (Homo sapiens, UniProt Q9UBT2)", "T3 sequence (Q9UBE0 whole entry)": "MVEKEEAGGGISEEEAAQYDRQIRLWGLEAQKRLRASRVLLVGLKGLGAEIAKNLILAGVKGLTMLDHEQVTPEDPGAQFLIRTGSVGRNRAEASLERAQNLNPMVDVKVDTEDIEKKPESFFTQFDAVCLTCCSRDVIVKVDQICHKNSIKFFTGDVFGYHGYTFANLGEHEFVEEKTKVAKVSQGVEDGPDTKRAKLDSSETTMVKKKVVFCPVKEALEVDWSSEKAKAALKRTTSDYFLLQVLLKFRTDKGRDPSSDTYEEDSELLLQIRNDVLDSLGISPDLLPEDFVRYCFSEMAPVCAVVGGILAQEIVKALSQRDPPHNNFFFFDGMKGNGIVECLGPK", "T3 sequence (Q9UBT2 whole entry)": "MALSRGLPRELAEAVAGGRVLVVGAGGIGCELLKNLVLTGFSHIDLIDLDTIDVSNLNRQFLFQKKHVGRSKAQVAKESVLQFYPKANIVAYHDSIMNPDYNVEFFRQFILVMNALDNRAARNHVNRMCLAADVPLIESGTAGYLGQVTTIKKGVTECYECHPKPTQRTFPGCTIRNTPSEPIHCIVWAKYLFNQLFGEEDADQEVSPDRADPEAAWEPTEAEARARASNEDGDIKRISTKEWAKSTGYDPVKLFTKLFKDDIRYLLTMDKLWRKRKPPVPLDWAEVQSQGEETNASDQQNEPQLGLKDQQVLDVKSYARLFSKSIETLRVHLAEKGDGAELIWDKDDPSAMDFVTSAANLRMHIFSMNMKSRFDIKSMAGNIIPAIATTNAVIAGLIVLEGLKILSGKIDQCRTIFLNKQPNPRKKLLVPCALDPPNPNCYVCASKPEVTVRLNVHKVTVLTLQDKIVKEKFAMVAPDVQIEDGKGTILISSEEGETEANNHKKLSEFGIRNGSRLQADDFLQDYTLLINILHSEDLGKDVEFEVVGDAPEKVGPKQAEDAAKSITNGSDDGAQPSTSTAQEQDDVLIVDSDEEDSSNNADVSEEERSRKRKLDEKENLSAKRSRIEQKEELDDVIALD", "experiment": "SUMOylation inhibitor hit validation, confirmation, SUMOylation inhibitor project, biochemical, AlphaScreen (AID 2018)", "assay_type": "functional"}, "SUMO-activating enzyme [6]": {"target": "T3, SUMO-activating enzyme", "experiment": "inhibitors of in vitro SUMOylation cascade, primary screen, biochemical, HTRF, uHTS (AID 2006)", "assay_type": "protein-complex assay"}, "Genome polyprotein": {"target": "Genome polyprotein (dengue virus type 2, UniProt P29990)", "sequence (P29990 2492-3391 limits assumed)": "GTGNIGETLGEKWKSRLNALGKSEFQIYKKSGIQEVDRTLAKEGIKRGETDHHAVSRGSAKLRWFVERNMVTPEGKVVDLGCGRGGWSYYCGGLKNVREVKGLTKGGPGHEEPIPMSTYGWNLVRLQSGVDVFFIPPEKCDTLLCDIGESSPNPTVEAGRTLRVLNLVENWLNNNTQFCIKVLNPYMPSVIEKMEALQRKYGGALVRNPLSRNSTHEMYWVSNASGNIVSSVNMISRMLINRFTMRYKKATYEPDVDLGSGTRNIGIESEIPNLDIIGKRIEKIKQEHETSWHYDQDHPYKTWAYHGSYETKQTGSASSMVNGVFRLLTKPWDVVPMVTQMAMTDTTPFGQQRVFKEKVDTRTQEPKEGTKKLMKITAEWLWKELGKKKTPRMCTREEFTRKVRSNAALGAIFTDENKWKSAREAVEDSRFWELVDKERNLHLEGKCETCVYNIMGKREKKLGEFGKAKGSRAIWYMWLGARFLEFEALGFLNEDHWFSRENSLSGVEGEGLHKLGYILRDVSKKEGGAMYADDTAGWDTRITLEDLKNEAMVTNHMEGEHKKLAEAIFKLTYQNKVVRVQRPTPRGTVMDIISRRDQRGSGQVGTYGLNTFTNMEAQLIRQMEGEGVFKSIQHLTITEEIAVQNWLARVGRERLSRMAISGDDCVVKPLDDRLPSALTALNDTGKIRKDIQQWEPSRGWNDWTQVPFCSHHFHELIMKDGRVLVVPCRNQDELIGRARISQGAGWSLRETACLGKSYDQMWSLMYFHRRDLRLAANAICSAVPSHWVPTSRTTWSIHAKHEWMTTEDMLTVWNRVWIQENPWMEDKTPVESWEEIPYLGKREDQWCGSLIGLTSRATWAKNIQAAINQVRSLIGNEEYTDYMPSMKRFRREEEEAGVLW", "experiment": "Dengue-2 NS5 methyltransferase inhibitors, primary screen, biochemical, confirmation dose response (AID 588689)", "assay_type": "functional"}},
  "note": "Activity calls are given as the source filed them.",
  "data": [
    {"smiles": "COc1ccc(NC(=S)Nc2ccc3nsnc3c2)cc1", "values": [
      {"measurement": "IC50", "setting": "[1]", "result": "> 2.48 µM (active)"},
      {"measurement": "IC50", "setting": "[2]", "result": "2.3 µM (active)"},
      {"measurement": "IC50", "setting": "[3]", "result": "> 67 µM (not active)"},
      {"measurement": "IC50", "setting": "[4]", "result": "6.61 µM (active)"}
    ]},
    {"smiles": "CC(C)(C)c1cc[n+](C2=C([N-]S(=O)(=O)c3ccccc3)C(=O)c3ccccc3C2=O)cc1", "values": [
      {"measurement": "EC50", "setting": "Streptococcus", "result": "5.15 µM (active)"}
    ]},
    {"smiles": "O=C1C=C(Nc2ccccc2C(=O)O)c2ccccc2C1=O", "values": [
      {"measurement": "IC50", "setting": "Hexokinase HKDC1", "result": "12.4 µM (active)"},
      {"measurement": "IC50", "setting": "SUMO-activating enzyme [5]", "result": "1.9 µM (active)"},
      {"measurement": "IC50", "setting": "SUMO-activating enzyme [6]", "result": "19.8 µM (active)"},
      {"measurement": "IC50", "setting": "Genome polyprotein", "result": "> 100 µM (active)"}
    ]}
  ]
}
